From paper PMC6900016, “Synthesis of Indomorphan Pseudo‐Natural Product Inhibitors of Glucose Transporters GLUT‐1 and ‐3” (Angewandte Chemie (International Ed. in English), 2019)

Columns and labels:
Assay in all cases: cells
Design in all cases: Cell growth inhibition, sulforhodamine B total protein staining
J82 = conditions: Homo sapiens, J82; 72 h growth; read-out: Cell growth inhibition IC50/µM
Protocol: (§1) Cell panel profiling A panel of 94 cell lines was exposed to Glupin for 72 h to assess the influence on cell growth (Oncolead, Germany). Cell growth was determined using sulforhodamine B assay. Measurements were performed using a total protein staining protocol. Briefly, after treatement cells were fixed addition of 10% TCA (for adherent growing cells) or 50% TCA (for semi-adherent growing cells or cells growing in suspension). After an incubation at 4°C for 1 h, plates were washed twice with 400 μl of deionized water and dried. Cells were then stained with 100 μl of 0.04% wt/v sulforhodamine B. Plates were incubated at room temperature for at least 30 min and washed six times with 1% acetic acid to remove unbound stain. […] This effect was much stronger at a physiological glucose concentration (5 mM; Figure 5 b,c). […] IC50 values lower than 300 nM were obtained for more than 20 cell lines, whereas 24 cell lines were not affected by the compound, among them the peripheral blood mononuclear control cells (PBMCs). Sensitivity to Glupin was detected across various tissue types (Table S6).

SNB75 = conditions: Homo sapiens, SNB-75; 72 h growth; read-out: Cell growth inhibition IC50/µM
Protocol: as §1

CACO2 = conditions: Homo sapiens, Caco-2; 72 h growth; read-out: Cell growth inhibition IC50/µM
Protocol: as §1

SF295 = conditions: Homo sapiens, SF-295; 72 h growth; read-out: Cell growth inhibition IC50/µM
Protocol: as §1

MINO = conditions: Homo sapiens, MINO; 72 h growth; read-out: Cell growth inhibition IC50/µM
Protocol: as §1

SKOV3 = conditions: Homo sapiens, SK-OV-3; 72 h growth; read-out: Cell growth inhibition IC50/µM
Protocol: as §1

RDES = conditions: RD-ES; 72 h growth; read-out: Cell growth inhibition IC50/µM
Protocol: as §1

HS578T = conditions: Homo sapiens, Hs-578T; 72 h growth; read-out: Cell growth inhibition IC50/µM
Protocol: as §1

U2OS = conditions: Homo sapiens, U2OS; 72 h growth; read-out: Cell growth inhibition IC50/µM
Protocol: as §1

NCIH358M = conditions: NCI-H358M; 72 h growth; read-out: Cell growth inhibition IC50/µM
Protocol: as §1

SKMEL28 = conditions: Homo sapiens, SK-MEL-28; 72 h growth; read-out: Cell growth inhibition IC50/µM
Protocol: as §1

HCT116 = conditions: Homo sapiens, HCT-116; 72 h growth; read-out: Cell growth inhibition IC50/µM
Protocol: as §1

HEK293 = conditions: Homo sapiens, HEK293; 72 h growth; read-out: Cell growth inhibition IC50/µM
Protocol: as §1

A673 = conditions: Homo sapiens, A673; 72 h growth; read-out: Cell growth inhibition IC50/µM
Protocol: as §1

A204 = conditions: Homo sapiens, A204; 72 h growth; read-out: Cell growth inhibition IC50/µM
Protocol: as §1

UMUC3 = conditions: Homo sapiens, UMUC3; 72 h growth; read-out: Cell growth inhibition IC50/µM
Protocol: as §1

JAR = conditions: 72 h growth; read-out: Cell growth inhibition IC50/µM
Protocol: as §1

HL60 = conditions: Homo sapiens, HL-60; 72 h growth; read-out: Cell growth inhibition IC50/µM
Protocol: as §1

SKMEL5 = conditions: Homo sapiens, SK-MEL-5; 72 h growth; read-out: Cell growth inhibition IC50/µM
Protocol: as §1

C33A = conditions: Homo sapiens, C-33-A; 72 h growth; read-out: Cell growth inhibition IC50/µM
Protocol: as §1

HT29 = conditions: Homo sapiens, HT-29; 72 h growth; read-out: Cell growth inhibition IC50/µM
Protocol: as §1

NCIH460 = conditions: Homo sapiens, NCI-H460; 72 h growth; read-out: Cell growth inhibition IC50/µM
Protocol: as §1

NCIH292 = conditions: Homo sapiens, NCI-H292; 72 h growth; read-out: Cell growth inhibition IC50/µM
Protocol: as §1

SMILES: CCOC(=O)Cn1c2c(c3ccccc31)C[C@@H]1C[C@H]2C(OC)CN1C(=O)c1cccnc1SC (single isomer, unassigned; (+)) [(+)-5a, Glupin]
- IC50 (J82): 7.25 µM
- IC50 (SNB75): 9.13 µM
- IC50 (CACO2): 3.51 µM
- IC50 (SF295): 0.427 µM
- IC50 (MINO): 1.77 µM
- IC50 (SKOV3): 6.07 µM
- IC50 (RDES): 3.71 µM
- IC50 (HS578T): 0.12 µM
- IC50 (U2OS): 0.502 µM
- IC50 (NCIH358M): > 30 µM
- IC50 (SKMEL28): > 30 µM
- IC50 (HCT116): 1.47 µM
- IC50 (HEK293): 0.463 µM
- IC50 (A673): 3.64 µM
- IC50 (A204): 0.562 µM
- IC50 (UMUC3): 0.032 µM
- IC50 (JAR): 0.886 µM
- IC50 (HL60): 0.112 µM
- IC50 (SKMEL5): > 30 µM
- IC50 (C33A): 1.5 µM
- IC50 (HT29): 3.35 µM
- IC50 (NCIH460): 0.572 µM
- IC50 (NCIH292): > 30 µM
